Here are results for 10 compounds from article PMC11314621, “Cheminformatics-Guided Exploration of Synthetic Marine Natural Product-Inspired Brominated Indole-3-Glyoxylamides and Their Potentials for Drug Discovery” (Molecules, 2024).

Read-outs that look alike come from different tables or passages of the source.

The subject of one assay is protein kinase C. The following applies: ref [15]; cited from earlier work.
The target of another assay is T1, α-synuclein (Homo sapiens, UniProt P37840).
T1 construct: α-synuclein protein solutions (10 μM) were prepared in 10 mM ammonium acetate
Description: In vitro α-synuclein affinity MS-binding assay. The following applies: 3 h incubation, 5:1 molar ratio, (+)-HRESIMS. As for the experimental part: The synthetic indoles were incubated with α-syn for 3 h at a 5:1 molar ratio, after which a (+)- mode high-resolution MS spectrum was acquired.
α-synuclein protein solutions (10 μM) were prepared in 10 mM ammonium acetate. Synthetic IGAs 25, 26, 34, 41, 45, 46, 51, and 52 (100 μM) were dissolved in 100% MeOH and incubated with α-syn at room temperature for 3 h. Protein-ligand interactions were analysed using (+) HRESIMS calibrated with sodium trifluoroacetate (0.1 mg/mL) with the following parameters: nebuliser 2.0 Bar; dry gas 7 L/min; dry temp 150 °C; funnel I RF 400 Vpp; end plate offset 500 V; capillary 4500 V; ISCID 0.0 ev; ion energy 4.0 eV; transfer time 100 μs; multipole RF 800 Vpp; collision RF 1200 Vpp; prepulse storage 10 μs; spectra rate: 2 × 100 Hz. The resulting spectra were analysed for additional peaks representing complexes formed between α-syn and active compounds.

A further assay deals with P. falciparum 3D7. Description: Antiplasmodial image-based assay, 3D7 strain. The following applies: chloroquine-sensitive P. falciparum strain 3D7. It counts as cell-based, Plasmodium falciparum. Here is the method:
(§1) An anti-plasmodial imaging assay reported by Duffy and Avery was used to examine the antiplasmodial activities of synthetic indoles 25, 26, 36, 37, 38, 40, 41, 43, 45, 46, 47, 48, 50 and 51. All compounds were diluted to […] in DMSO and tested at three increasing concentrations from 0.4 nM–40 μM per log dose in a 16-point CRC ([…]) parasite strains of Plasmodium falciparum. […] Normalised percent inhibition data was obtained using in-plate positive (4 μM DHA) and negative (0.4% DMSO) controls, which were then used to calculate IC50 values. Compounds were incubated in CellCarrier-384 well imaging plates in the presence of 2% parasitemia (3D7 or Dd2) at 0.3% hematocrit in a total assay volume of 50 μL for 72 h at 37 °C, 5% O2, 5% CO2 and 90% N2. After incubation, plates were stained with 4′,6-diamidino-2-phenylindole (DAPI) and imaged using an Opera Phenix high-content imaging system (Revvity, Mulgrave, Victoria, Australia). Images were analysed using Harmony (Revvity) software (version 3), while percent parasite inhibition was calculated using the minimum (0.4% DMSO) and (DHA). IC50 values were determined by plotting % inhibition against log dose and analysed using nonlinear regression and sigmoidal dose-response using GraphPad Prism version 6.

A further assay relates to P. falciparum Dd2. Briefly: Antiplasmodial image-based assay, Dd2 strain. It counts as cell-based, Plasmodium falciparum. The following applies: chloroquine-resistant P. falciparum strain Dd2. As for the experimental part: as §1
The subject of the next assay is HEK293 cells. Description: HEK293 cell cytotoxicity. The following applies: 60 µM, human embryonic kidney cell line. It counts as cell-based.
Assay [1] addresses T2, SARS-CoV-2 3CLpro (Severe acute respiratory syndrome coronavirus 2, UniProt P0DTD1).
T2 construct: Each well contained 25 nM of SARS-CoV-2 3CL^Pro and eCFP-Venus biosensor (500 nM)
Description: biochemical.

Assay [2] has as its target T3, porcine pancreatic elastase (Sus scrofa, UniProt P00772).
T3 construct: high-purity porcine pancreatic elastase (Sigma, Melbourne, Victoria, Australia, E0258); purchased Sigma E0258
Briefly: Serine protease assay, elastase. It counts as biochemical. The following applies: remaining enzyme activity. Here is the method:
(§2) Serine protease-inhibitory activities for 25–56 were determined in 96 well plates. Each inhibitor was initially tested in duplicate against elastase and chymotrypsin at 10 µM. […] Assays for the inhibition of elastase were undertaken using high-purity porcine pancreatic elastase (Sigma, Melbourne, Victoria, Australia, E0258) in an assay buffer of 50 mM Tris-HCl (pH 8.0) at room temperature. Dilutions of each inhibitor (originally resuspended in DMSO) were prepared in triplicate and then preincubated with 375 ng of elastase for 15 min at room temperature in a total reaction volume of 85 µL. Following this preincubation, 15 µL of 2 mM N-succinyl-Ala-Ala-Ala-p-nitroanilide (Sigma, S4760) in assay buffer was added to each well and kinetic measurement of absorbance at 405 nm (Tecan Spark Plate Reader, Zürich, Switzerland) was undertaken for 30 min. […] Dilutions of each inhibitor were prepared in triplicate and preincubated with 5 µg of chymotrypsin for 10 min at 37 °C in a total reaction volume of 75 µL. After preincubation, 25 µL of 2 mM N-succinyl-Gly-Gly-Phe-p-nitroanilide (Sigma, S1899) was added to each well and kinetic measurement of absorbance at 405 nm was undertaken for 30 min. Inhibitory activity was determined by comparison of the slope of the reaction curve for multiple dilutions of the inhibitor to that of an equivalent solvent control and expressed as IC50 ± standard deviation.

The target of assay [3] is T4, α-chymotrypsin from bovine pancreas (Bos taurus, UniProt P00766).
T4 construct: α-chymotrypsin from bovine pancreas (Sigma, C4129); purchased Sigma C4129; host or cells: bovine pancreas
Briefly: Serine protease assay, chymotrypsin. The format is biochemical. As for the experimental part: as §2

The subject of a further assay is prion. The following applies: cited from earlier work.
Assay [4] deals with T2, SARS-CoV-2 3CLpro. The following applies: cited from earlier work; for inhibition of SARS-CoV-2 3CLPro: ref [33].
Another assay concerns HIV-1. Also on record: method as in PMID 34095843, PMID 30940396. The following applies: ref [34],[35]; cited from earlier work.
The subject of a further assay is elastase. More on the design: method as in PMID 37609780. The following applies: ref [36]; cited from earlier work.
The mark [5] stands for this setting: 10 µM, remaining enzyme activity.

T3 sequence (P00772 27-266): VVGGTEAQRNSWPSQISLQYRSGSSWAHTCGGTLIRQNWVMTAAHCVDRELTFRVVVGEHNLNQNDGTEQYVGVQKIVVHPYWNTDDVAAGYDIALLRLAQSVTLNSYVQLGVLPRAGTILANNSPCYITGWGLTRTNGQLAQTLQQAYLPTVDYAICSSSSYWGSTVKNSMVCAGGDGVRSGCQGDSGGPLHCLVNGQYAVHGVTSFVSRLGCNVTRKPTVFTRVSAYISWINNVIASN

Regarding `CO[C@@H]1[C@H](NC(=O)C(=O)c2c[nH]c3ccccc23)C[C@H]2O[C@]1(C)n1c3ccccc3c3c4c(c5c6ccccc6n2c5c31)C(=O)NC4` [Compound 13, 13G-291], the “protein kinase C inhibition” value in the assay with protein kinase C was “only weak inhibition”.
What is called inhibition is the relative decrease from the control value, in per cent. The term IC50 denotes the midpoint of a concentration-inhibition curve. Higher therefore signals a need for much substance. The remaining activity is what remains of the control signal, in per cent. Lower therefore signals a large loss of activity. As to `O=C(N[C@H](Cc1c[nH]c2ccccc12)C(=O)O)C(=O)c1c[nH]c2ccc(Br)cc12` [Compound 46, 5-bromoindolyl-3-glyoxyl-D-tryptophan], the “binding with α-syn (protein-ligand complexes in MS)” value at α-synuclein is “α-syn binding displayed”. The inhibition at 60 µM in the assay on P. falciparum 3D7 (Plasmodium falciparum, 3D7, 72 h, 60 µM, 72 h) is around 100%; with P. falciparum Dd2 (Plasmodium falciparum, DD2, 72 h, 60 µM, 72 h) it was around 100%; in the assay with HEK293 cells (HEK293), 21.5%. Further, the IC50 with P. falciparum 3D7 (Plasmodium falciparum) is 7.4 µM; with P. falciparum Dd2 (Plasmodium falciparum), 8.2 µM; in assay [3] (IC50 ± standard deviation), 6.3 µM. The “% Inhibition @ 60 µM, Dd2” value with P. falciparum Dd2 (60 µM, 72 h) worked out at 97.5%. Moreover, the inhibition at 20 µM on SARS-CoV-2 3CLpro [1] (read-out: % inhibition @ 20 µM, DTT) was 2.5%; on SARS-CoV-2 3CLpro [1] (read-out: % inhibition @ 20 µM, No DTT), 27.4%. Moreover, the remaining activity at 10 µM in [2] came to 90.9%; in assay [3] (setting [5]) it was 47.7%.
In the case of `O=C(N[C@@H](Cc1ccc(O)cc1)C(=O)O)C(=O)c1c[nH]c2cc(Br)ccc12` [Compound 51, 6-bromoindolyl-3-glyoxyl-L-tyrosine], the “binding with α-syn (protein-ligand complexes in MS)” value on α-synuclein is given as “α-syn binding displayed”. Besides, the “% Inhibition @ 60 µM, 3D7” value in the assay on P. falciparum 3D7 (60 µM, 72 h) came out at 58.0%. Moreover, the “% Inhibition @ 60 µM, Dd2” value in the assay on P. falciparum Dd2 (60 µM, 72 h) is recorded as 56.0%. Also, the “% Inhibition @ 60 µM, HEK293” value with HEK293 cells is 21.5%. Moreover, the “% inhibition @ 20 µM, No DTT” value at SARS-CoV-2 3CLpro [1] (20 µM, no DTT) was 23.3%. Further, the “% inhibition @ 20 µM, DTT” value at SARS-CoV-2 3CLpro [1] (20 µM, with DTT (4 mM)) is 6.9%. Also, the “% enzyme activity @ 10 µM, elastase” value in [2] stood at 100.3%. Further, the “% enzyme activity @ 10 µM, chymotrypsin” value in assay [3] (setting [5]) is 91.8%.
`COc1ccc(C/C(=N\O)C(=O)NCCc2cc(Br)c(OCCCN(C)C)c(Br)c2)cc1Br` [Compound 57, aplysamine-2]: in the assay on prion (ref [25]), the “anti-prion activity in a yeast-based assay” value is recorded as “micromolar anti-prion activities”.
With `O=C[C@H](C[C@@H]1CCNC1=O)NC(=O)[C@H](CC1CCCCC1)NC(=O)c1cc2ccccc2[nH]1` [Compound 62], at SARS-CoV-2 3CLpro [4], the “inhibition of SARS-CoV-2 3CLPro” value was “nanomolar inhibition”.
In the case of `O=C[C@H](C[C@@H]1CCNC1=O)NC(=O)[C@H](Cc1cccc(F)c1)NC(=O)c1cc2ccccc2[nH]1` [Compound 63], the “inhibition of SARS-CoV-2 3CLPro” value at SARS-CoV-2 3CLpro [4] is “nanomolar inhibition”.
As for `O=C(C(=O)N1CCN(C(=O)c2ccccc2)CC1)c1c[nH]c2ccccc12` [Compound 64], the “inhibition of HIV-1” value in the assay on HIV-1 was “nanomolar inhibition”.
`C[C@@H]1CN(C(=O)c2ccccc2)CCN1C(=O)C(=O)c1c[nH]c2ccccc12` [Compound 65]: the “inhibition of HIV-1” value with HIV-1 is “nanomolar inhibition”.
With `CC[C@H](C)[C@@H]1NC(=O)[C@H](CC(C)C)NC(=O)[C@@H](N2C(=O)N[C@@H](C)C2=O)CNC(=O)[C@H](CS(=O)(=O)O)NC(=O)/C=C/c2csc(n2)[C@H](Cc2ccc(O)cc2)NC(=O)C1=O` [Compound 66, cyclotheonellazole D], the “change of SARS-CoV-2 3CLPro inhibition in the presence of DTT” value on SARS-CoV-2 3CLpro [4] (DTT (4 mM) versus no DTT, ref [36]) is “more than eightfold reduction”. In the assay on elastase, the “elastase inhibition” value was “nanomolar potent inhibitor”.
As to purealidine Q, the “anti-prion activity in a yeast-based assay” value in the assay on prion was “micromolar anti-prion activities”.
